From patent US20260160663A1, “OBLIQUE LINE SCANNER SYSTEMS AND METHODS FOR HIGH THROUGHPUT SINGLE MOLECULE TRACKING IN LIVING CELLS” (EIKON THERAPEUTICS, INC., priority 2022, published 2026)

Tested on: Halo-PCNA U2OS cells
Experiment: Cell cycle block, phases assigned by PCNA-based machine learning model
Conditions: 2 mM Thymidine (S-phase block) or RO-3306 (G2-M block) per FIG. 20B legend
Experimental: Time-lapse microscopy was conducted on Halo-PCNA labeled with 50 nM JFX650, to achieve near-saturating labeling, for 12 hours at 12 frames per hour (FIG. 21A). A machine learning model was then trained using both manually assigned cell stages and time-based progression resulting in both a G1, early S, mid S, late S, G2 and mitosis classifier as well as a regression prediction across the continuum of the cell cycle (FIG. 21B). The predicted cell cycle classification performed well as compared to manual annotation (FIG. 21C). Clear progression of individual cells through the cell cycle was observed when regression prediction was plotted across the time series (FIG. 21D). […] When cells in each cell phase were analyzed separately, it became apparent that the slow-moving population of PCNA was exclusively found in cell predicted to be in S-phase and that there was a marked decrease in the fast-moving population (FIG. 20E). Mean diffusion coefficient of PCNA was then measured for 4,081 individual cells to characterize heterogeneity across the cell population, which is described in large part by cell cycle (FIG. 20F).
Cell cycle as provided above can be automatically determined using an image (e.g., an image of JF549-labeled PCNA). […]

Compound: O=C1NC(=NCc2cccs2)S/C1=C\c1ccc2ncccc2c1 [RO-3306]
- fraction of cells assigned to the respective cell phase: expected enrichment

Compound: Cc1cn([C@H]2C[C@H](O)[C@@H](CO)O2)c(=O)[nH]c1=O [thymidine]
- fraction of cells assigned to the respective cell phase: expected enrichment
